Data from patent US8399033B2, “Anti-bacterial composition comprising extract from barks of Alnus pendula Matsum” (Chung-Ang University Industry Academic Cooperation …, priority 2009, dated 2013).
Values after ≈ are worked out from the molar mass of the structure shown.

How the values were obtained:
[1] = DPPH free radical scavenging activity; assay type: biochemical; settings: 0.1 mM DPPH, 30 min at 37° C., absorbance 492 nm; for IC50: compounds
Experimental: Each sample (10 μL) was incubated with 0.1 mM DPPH solution (180 μL, in 99.5% ethanol), and vigorously agitated for 10 sec using a vortex mixer, followed by incubation for 30 min at 37° C. Afterwards, the absorbance was measured at 492 nm using an ELISA reader (TECAN, Sazburg, Austria). L-ascorbic acid as positive control drug was prepared and measured according to the method as described above. To determine anti-oxidative activity of each sample, anti-oxidative potential was represented as reducing power by EDA % (Electron donating ability) for DPPH. […] DPPH method is a representative measuring anti-oxidative activity (81). DPPH contains stable radical in normal condition, but its radical was removed where it contacts with a substance having anti-oxidative activity. Therefore, anti-oxidative effects could be assessed by measuring the absorbance changes of DPPH. In this regard, DPPH as a relatively stable free radical in dark-purple state was reduced by amino acids containing sulfur atom such as cystin and glutathione, L-ascorbic acid, BHA or BHT. These color changes have been used to isolate an anti-oxidative substance from a variety of natural materials (82).

DPS-2 (MRSA) = experiment: MIC by liquid media dilution assay; assay type: cell-based; settings: Staphylococcus aureus; DPS-2 (MRSA) clinical isolate; 24 hrs at 37° C., naked-eye observation; read-out: MIC (minimum inhibitory concentration)
Experimental: (§1) S.aureus MSSA ATCC 25923 and MRSA 33591 standard strains were purchased from Korean Culture Center of Microorganisms (KCCM), and two S. aureus clinical isolates were obtained from subjects of WonKwang University Hospital (Iksan, Jeonbuk, South Korea). Mueller Hinton Agar (MHA, Difco, USA) or Mueller Hinton Broth (MHB, Difco, USA) was used as subculture media.
(§2) Minimum Inhibitory Concentration (MIC) was carried out according to the standard of Clinical and Laboratory Standards Institute (CLSI). One strain of MRSA (Methicillin resistant staphylococcus aureus), one strain of MSSA (Methicillin susceptible staphylococcus aureus, MSSA), and two strains of MRSAs as clinical isolates obtained from plastic surgery subjects of WonKwang University Hospital, were suspended in Muller-Hinton Broth. Thereafter, the bacterial solutions were adjusted to the turbidity of 0.5 Mcfarland standard. The bacteria were prepared at a concentration of about 1×10^8 CFU/ml, followed by performing anti-bacterial experiment using a liquid media dilution assay.
(§3) The extract from a bark of Alnus pendula was serially diluted from minimal concentration (0.97 μg/ml) to maximal concentration (2 mg/ml) using DMSO (Dimethylsulfoxide) as a solvent, and then were seeded into each well of 96-well plate with a volume of 10 μl/well, followed by adding 100 μl bacterial solution and 90 μl media. After culturing the mixture for 24 hrs at 37° C. in incubator, MIC was defined as minimal concentration in which the growth of bacteria is inhibited in a naked-eye observation.

[2] = system: S. aureus ATCC 33591 (MRSA); experiment: MIC by liquid media dilution assay; assay type: cell-based; settings: Staphylococcus aureus, 24 hrs at 37° C., naked-eye observation, read-out: MIC (minimum inhibitory concentration)
Experimental: as §1, §2, §3

DPS-1 (MRSA) = experiment: MIC by liquid media dilution assay; assay type: cell-based; settings: Staphylococcus aureus; DPS-1 (MRSA) clinical isolate; 24 hrs at 37° C., naked-eye observation; read-out: MIC (minimum inhibitory concentration)
Experimental: as §1, §2, §3

[3] = system: S. aureus ATCC 25923 (MSSA); experiment: MIC by liquid media dilution assay; assay type: cell-based; settings: Staphylococcus aureus, 24 hrs at 37° C., naked-eye observation, read-out: MIC (minimum inhibitory concentration)
Experimental: as §1, §2, §3

SMILES | IC50 [1] [µM] | IC50 value DPPH radical scavenging activity ([1]; extract and fractions) [µg/mL] | MIC (DPS-2 (MRSA)) [µg/mL] | MIC [2] [µg/mL] | MIC (DPS-1 (MRSA)) [µg/mL] | MIC [3] [µg/mL]
O=C1O[C@H]([C@@H](O)CO)C(O)=C1O [Vit. C, L-ascorbic acid] | 16.4 ± 0.21 | 5.29 ± 0.05 (≈ 30 µM) | – | – | – | –
O=C(/C=C/CCc1ccc(O)c(O)c1)CCc1ccc(O)c(O)c1 [compound 2, 1,7-bis-(3,4-dihydroxyphenyl)-4-heptene-3-one] | 22.5 ± 0.71 | – | 62.5 (≈ 190 µM) | 62.5 (≈ 190 µM) | 125 (≈ 381 µM) | 62.5 (≈ 190 µM)
